Test results reported in US11840686B2, “Modulation of prekallikrein (PKK) expression” (Ionis Pharmaceuticals, Inc., priority 2013, dated 2023).
Strand notation (5' to 3'): a small letter for the sugar, then the base; units joined by * are phosphorothioate-linked, units joined directly phosphodiester-linked; [ ] holds rarer units or linkages, { } end groups; capitals alone tell only the bases. e = 2'-O-(2-methoxyethyl) (MOE); k = constrained ethyl (cEt); [5mC] = 5-methylcytosine; d = 2'-deoxy (DNA)

Assays:
[1] = test system: human PKK mRNA; assay: Antisense inhibition of human PKK mRNA in HepaRG cells, 1,000 nM, MOE/deoxy/cEt oligonucleotides (Example 3); format: cell-based
How it was run: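 Readout is percent PKK mRNA reduction against untreated controls, by real-time PCR (RTS3454) adjusted for total RNA via RIBOGREEN. Oligonucleotides, phosphorothioate gapmers of 16 nucleosides with cEt, MOE and deoxy sugars, were delivered at 1,000 nM by electroporation to 20,000 HepaRG cells/well for roughly 24 h.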

[2] = test system: human PKK mRNA; assay: Dose-dependent antisense inhibition of human PKK in HepaRG cells, 0.11-3.00 uM (Example 6); format: cell-based; details: for IC50: 0.11-3.00 μM; for percent inhibition of PKK mRNA, 0.11 μM / percent inhibition of PKK mRNA, 0.33 μM / percent inhibition of PKK mRNA, 1.00 μM / percent inhibition of PKK mRNA, 3.00 μM: electroporation, approx. 16 hours, relative to untreated control cells
Protocol: Cells were plated at a density of 20,000 cells per well and transfected using electroporation with 0.11 μM, 0.33 μM, 1.00 μM, and 3.00 μM concentrations of antisense oligonucleotide. After a treatment period of approximately 16 hours, RNA was isolated from the cells and PKK mRNA levels were measured by quantitative real-time PCR. Human PKK primer probe set RTS3454 was used to measure mRNA levels. PKK mRNA levels were adjusted according to total RNA content, as measured by RIBOGREEN®. The antisense oligonucleotides were tested in a series of experiments that had similar culture conditions.
The half maximal inhibitory concentration (IC50) of each oligonucleotide is also presented.

[3] = HepaRG cells, electroporation with 1,000 nM antisense oligonucleotide, approx. 24 hours, PKK mRNA by RT-PCR (RTS3454), relative to untreated control cells, Table 25 experiment
[4] = Table 20, HepaRG cells, electroporation with 1,000 nM antisense oligonucleotide, approximately 24 hours, PKK mRNA by RT-PCR (RTS3454), relative to untreated control cells
[5] = Table 22 experiment, HepaRG cells, electroporation with 1,000 nM antisense oligonucleotide, approx. 24 hours, PKK mRNA by RT-PCR (RTS3454), relative to untreated control cells
[6] = HepaRG cells, electroporation with 1,000 nM antisense oligonucleotide, approximately 24 hours, primer probe set RTS3454, relative to untreated control cells, experiment of Table 23
[7] = Table 30, human PKK mRNA, HepaRG cells, 1,000 nM antisense oligonucleotide
[8] = HepaRG cells, electroporation with 1,000 nM antisense oligonucleotide, approximately 24 hours, primer probe set RTS3454, relative to untreated control cells, experiment of Table 24
[9] = Table 19, HepaRG cells, electroporation with 1,000 nM antisense oligonucleotide, approximately 24 hours, PKK mRNA by RT-PCR (RTS3454), relative to untreated control cells

Substance	% inhibition ([1]; HepaRG cells, electroporation with 1,000 nM antisense oligonucleotide, approx. 24 hours, PKK mRNA by RT-PCR (RTS3454), relative to untreated control cells, Table 26 experiment)	IC50 [2]	percent inhibition of PKK mRNA, 0.11 μM [2]	percent inhibition of PKK mRNA, 0.33 μM [2]	percent inhibition of PKK mRNA, 1.00 μM [2]	percent inhibition of PKK mRNA, 3.00 μM [2]	% inhibition [1, 3]	% inhibition [1, 4]	% inhibition [1, 5]	% inhibition [1, 6]	% inhibition [1, 7]	% inhibition [1, 8]	% inhibition ([1]; Table 27, HepaRG cells, 1,000 nM antisense oligonucleotide, human PKK mRNA)	% inhibition [1, 9]	% inhibition ([1]; Table 28, HepaRG cells, 1,000 nM antisense oligonucleotide, human PKK mRNA)	% inhibition ([1]; Table 21 experiment, HepaRG cells, electroporation with 1,000 nM antisense oligonucleotide, approx. 24 hours, PKK mRNA by RT-PCR (RTS3454), relative to untreated control cells)
548247 (antisense e[5mC]*eG*kA*dT*dT*dT*dT*d[5mC]*d[5mC]*dA*dT*dG*d[5mC]*kA*kT*eA) [compound 548247]	56%	500 nM	16%	50%	62%	82%	–	–	–	–	–	–	–	–	–	–
548201 (eT*eG*kT*dT*d[5mC]*dT*dA*dA*dT*dG*dT*dG*dG*k[5mC]*kA*e[5mC]; antisense) [compound 548201]	–	800 nM	0%	7%	70%	85%	67%	–	–	–	–	–	–	–	–	–
547859 (antisense e[5mC]*e[5mC]*kT*d[5mC]*dT*d[5mC]*dA*dT*dA*dT*d[5mC]*dA*dA*k[5mC]*kT*e[5mC]) [compound 547859]	–	300 nM	29%	56%	83%	78%	–	77%	88%	–	–	–	–	–	–	–
547946 (eG*eA*kA*d[5mC]*dT*dT*dG*dG*dT*dG*dT*dG*d[5mC]*k[5mC]*kA*e[5mC]; antisense) [compound 547946]	–	500 nM	0%	47%	74%	–	–	–	–	81%	–	–	–	–	–	–
547877 (antisense eA*eA*k[5mC]*dA*d[5mC]*dT*dG*d[5mC]*dT*dA*dA*d[5mC]*d[5mC]*kT*kT*eA) [compound 547877]	–	200 nM	29%	66%	83%	–	–	81%	93%	–	–	–	–	–	–	–
548422 (antisense eG*eT*kA*dT*d[5mC]*dA*d[5mC]*dT*dG*dT*d[5mC]*d[5mC]*dT*kA*kT*eA) [compound 548422]	–	700 nM	0%	32%	71%	93%	–	–	–	–	69%	–	–	–	–	–
548005 (eA*eG*kA*dG*dT*dA*dA*d[5mC]*d[5mC]*dA*dG*dA*dG*k[5mC]*kT*e[5mC]; antisense) [compound 548005]	–	400 nM	53%	49%	71%	95%	–	–	–	–	–	77%	–	–	–	–
548338 (antisense eA*eT*kG*dA*dA*dA*d[5mC]*dT*dG*dT*dG*dG*d[5mC]*kT*k[5mC]*eG) [compound 548338]	–	200 nM	41%	58%	79%	95%	–	–	–	–	–	–	80%	–	–	–
547942 (eG*eG*kT*dG*dT*dG*d[5mC]*d[5mC]*dA*d[5mC]*dT*dT*dT*k[5mC]*kA*eG; antisense) [compound 547942]	–	300 nM	25%	51%	91%	–	–	–	–	85%	–	–	–	–	–	–
548147 (e[5mC]*eG*kT*d[5mC]*d[5mC]*dT*dT*dA*dG*dG*dA*dT*dG*k[5mC]*kA*eA; antisense) [compound 548147]	–	–	59%	94%	80%	–	–	–	–	–	–	–	–	81%	–	–
548479 (eA*eG*kG*d[5mC]*d[5mC]*dA*dT*dT*dT*dG*dA*dT*d[5mC]*k[5mC]*kG*eA; antisense) [compound 548479]	–	400 nM	2%	52%	82%	97%	–	–	–	–	–	–	–	–	68%	–
548070 (e[5mC]*e[5mC]*k[5mC]*dA*dA*d[5mC]*dA*dG*dT*dT*dG*dG*dT*kA*kT*eA; antisense) [compound 548070]	–	1100 nM	26%	35%	48%	63%	–	–	–	–	–	85%	–	–	–	–
548180 (eT*e[5mC]*kA*dT*dG*dG*dA*dG*dA*dT*d[5mC]*dT*d[5mC]*kA*kG*eT; antisense) [compound 548180]	–	400 nM	11%	59%	71%	88%	79%	–	–	–	–	–	–	–	–	–
548425 (antisense eA*eA*k[5mC]*dA*dG*dT*dA*dT*d[5mC]*dA*d[5mC]*dT*dG*kT*k[5mC]*e[5mC]) [compound 548425]	–	200 nM	41%	57%	68%	80%	–	–	–	–	90%	–	–	–	–	–
548004 (eA*eG*kT*dA*dA*d[5mC]*d[5mC]*dA*dG*dA*dG*d[5mC]*dT*k[5mC]*k[5mC]*e[5mC]; antisense) [compound 548004]	–	300 nM	24%	47%	80%	92%	–	–	–	–	–	80%	–	–	–	–
548106 (antisense e[5mC]*e[5mC]*kA*dT*dG*dT*dA*d[5mC]*dT*d[5mC]*dA*dG*d[5mC]*kG*kA*e[5mC]) [compound 548106]	–	–	53%	54%	82%	94%	–	–	–	–	–	–	–	79%	–	–
548409 (antisense eG*eT*kA*dT*d[5mC]*dA*d[5mC]*dT*dG*dT*dA*d[5mC]*dT*kA*kG*eT) [compound 548409]	–	300 nM	21%	60%	90%	93%	–	–	–	–	81%	–	–	–	–	–
547824 (e[5mC]*eG*kA*dT*dG*dT*dA*d[5mC]*dT*dT*dT*dT*dG*kG*k[5mC]*eA; antisense) [compound 547824]	–	–	45%	73%	78%	–	–	–	–	–	–	–	–	–	–	82%
